Data published in paper PMC9606955, “In Vitro Activity of Essential Oils Distilled from Colombian Plants against Candida auris and Other Candida Species with Different Antifungal Susceptibility Profiles” (Molecules, 2022).
In brackets after ≈: the same amount, converted by molar mass. One block for each compound: values may come before it.

Assays:
Assay in all cases: MIC, CLSI M27 broth microdilution
C. albicans ATCC 10231 = assay type: cell-based, Candida albicans; conditions: antifungal drugs; for MIC: Candida albicans, ATCC10231, geometric mean
Source text: (§1) The fungal strains used in this study were C. albicans ATCC 10231, C. albicans ATCC 64550, C. parapsilosis ATCC 22019, C. tropicalis ATCC 750, C. tropicalis ATCC 200956 (resistant to azoles and AMB), C. glabrata LMDM 34 (resistant to echinocandins), C. metapsilosis MUM 15.12, C. orthopsilosis MUM 17.13, C. lusitaniae MUM 17.08, C. krusei ATCC 6258 (Issatchenkia orientalis ATCC 6258), and C. auris CDC B11903. Additionally, nine clinical isolates were included: C. parapsilosis Synlab 406 (FLC-resistant) and eight C. auris isolates identified by MALDI-TOF MS (Bruker Daltonics, Bremen, Germany) according to Zhao et al.. These yeasts were cultured on Sabouraud Dextrose Agar (SDA; Sigma-Aldrich, St. Louis, MO, USA) for 24 h at 35 °C.
(§2) Antifungal susceptibility testing was performed according to Clinical and Laboratory Standards Institute M27, 4th Edition (CLSI standard M27, 4th Edition). Some modifications were applied for evaluation of the antifungal activity of EOs and terpenes. Initially, a screening was carried out to determine the antifungal activity of the EOs and of commercial terpenes. Stock concentrations of EOs and terpenes were prepared at 512 µg/mL and an inoculum of 2.5 × 10^3 CFU/mL of each yeast was prepared in RPMI 1640-MOPS (Sigma- Aldrich St. Louis, MO, USA). Thereafter, 100 µL of each stock solution of EOs or terpenes was dispensed in 96-well microdilution plates (Corning®, Costar®, NY, USA) and 100 µL of each yeast inoculum was added. […] Microdilution plates were incubated at 35 °C and, after 24 h, the presence or absence of growth was visually checked using a manual mirror viewer and then compared with the amount of growth in the control (no EO or terpene). Compounds able to inhibit yeast growth were tested to determine the minimal inhibitory concentration (MIC) as follows: 100 µL of 10 two-fold dilutions of the EOs or commercial terpenes was dispensed in 96-well microplates and the yeast inoculum was added. Final concentrations of the EOs or terpenes ranged from 0.5 µg/mL to 256 µg/mL. Microdilution plates were incubated at 35 °C for 24 h. MICs were visually determined at the lowest concentration that produced visual inhibition compared to the growth control. The assays were performed at least three times in duplicate on different days. The results were expressed as geometric means (GM) and ranges. As an antifungal susceptibility testing control, the activity of ITC and AMB against the reference strains C. krusei ATCC 6258 and C. parapsilosis ATCC 22019 was evaluated in all experiments following the CLSI standard M27, 4th Edition. It was mandatory that the MIC values remained in the accepted range.

C. albicans ATCC 64550 = assay type: cell-based, Candida albicans; conditions: antifungal drugs; for MIC: Candida albicans, ATCC64550, geometric mean
Source text: as §1, §2

C. krusei ATCC 6258 = assay type: cell-based, Candida krusei; conditions: C. krusei ATCC 6258, antifungal drugs; for MIC: Pichia kudriavzevii, ATCC6258, geometric mean, read-out: MIC GM
Outline: (§3)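 Yeasts grown on SDA 24 h at 35 °C; inoculum 2.5 × 10^3 CFU/mL in RPMI 1640-MOPS. Ten two-fold dilutions of EOs or terpenes, final 0.5–256 µg/mL, incubated 24 h at 35 °C. MIC read visually as lowest concentration inhibiting growth versus control; geometric means of ≥3 duplicate runs.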

[1] = tested on: C. tropicalis ATCC 200956; assay type: cell-based, Candida tropicalis; conditions: C. tropicalis ATCC 200956; for MIC Range / MIC: antifungal drugs; for MIC: Candida tropicalis, ATCC200956, geometric mean, read-out: MIC GM
Outline: as §3

C. tropicalis ATCC 750 = assay type: cell-based, Candida tropicalis; conditions: antifungal drugs; for MIC: Candida tropicalis, ATCC750, geometric mean
Outline: as §3

C. glabrata LMDM 34 = assay type: cell-based, Candida glabrata; conditions: antifungal drugs; for MIC: Nakaseomyces glabratus, LMDM34, geometric mean
Source text: as §1, §2

[2] = tested on: C. metapsilosis MUM 15.12; assay type: cell-based, Candida metapsilosis; conditions: C. metapsilosis MUM 15.12, antifungal drugs; for MIC: Lodderomyces metapsilosis, MUM15.12, geometric mean, read-out: MIC GM
Outline: as §3

[3] = tested on: C. orthopsilosis MUM 17.13; assay type: cell-based, Candida orthopsilosis; conditions: C. orthopsilosis MUM 17.13, antifungal drugs; for MIC: Lodderomyces orthopsilosis, MUM17.13, geometric mean, read-out: MIC GM
Outline: as §3

C. lusitaniae MUM 17.08 = assay type: cell-based, Candida lusitaniae; conditions: C. lusitaniae MUM 17.08, antifungal drugs; for MIC: Clavispora lusitaniae, MUM17.08, geometric mean, read-out: MIC GM
Outline: as §3

C. auris CDC B11903 = assay type: cell-based, Candida auris; conditions: C. auris CDCB11903, antifungal drugs; for MIC: Candidozyma auris, geometric mean, read-out: MIC GM
Outline: as §3

C. auris Ca 10 = assay type: cell-based, Candida auris; conditions: antifungal drugs; for MIC: Candidozyma auris, CA10, geometric mean
Outline: as §3

C. auris Ca 17 = assay type: cell-based, Candida auris; conditions: C. auris Ca 17; for MIC Range / MIC: antifungal drugs; for MIC: Candidozyma auris, CA17, geometric mean, read-out: MIC GM
Outline: as §3

C. auris Ca 1 = assay type: cell-based, Candida auris; conditions: C. auris Ca 1, antifungal drugs; for MIC: Candidozyma auris, CA1, geometric mean, read-out: MIC GM
Outline: as §3

C. auris Ca 32 = assay type: cell-based, Candida auris; conditions: C. auris Ca 32, antifungal drugs; for MIC: Candidozyma auris, CA32, geometric mean, read-out: MIC GM
Outline: as §3

C. auris Ca 41 = assay type: cell-based, Candida auris; conditions: C. auris Ca 41; for MIC Range / MIC: antifungal drugs; for MIC: Candidozyma auris, CA41, geometric mean, read-out: MIC GM
Outline: as §3

C. auris Ca 45 = assay type: cell-based, Candida auris; conditions: C. auris Ca 45; for MIC Range / MIC: antifungal drugs; for MIC: Candidozyma auris, CA45, geometric mean, read-out: MIC GM
Outline: as §3

C. auris Ca 46 = assay type: cell-based, Candida auris; conditions: C. auris Ca 46; for MIC Range / MIC: antifungal drugs; for MIC: Candidozyma auris, CA46, geometric mean, read-out: MIC GM
Outline: as §3

C. auris Ca 9 = assay type: cell-based, Candida auris; conditions: C. auris Ca 9, antifungal drugs; for MIC: Candidozyma auris, CA9, geometric mean, read-out: MIC GM
Outline: as §3

[4] = tested on: C. parapsilosis Synlab 406; assay type: cell-based, Candida parapsilosis; conditions: C. parapsilosis Synlab 406; for MIC Range / MIC: antifungal drugs; for MIC: Lodderomyces parapsilosis, SYNLAB406, geometric mean, read-out: MIC GM
Outline: as §3

MIC (C. albicans ATCC 10231): 0.04 µg/mL (≈ 0.0433 µM)
MIC Range (C. albicans ATCC 10231): 0.03 to 0.12 µg/mL
MIC (C. albicans ATCC 64550): 0.04 µg/mL (≈ 0.0433 µM)
MIC Range (C. albicans ATCC 64550): 0.03 to 0.12 µg/mL
MIC Range (C. krusei ATCC 6258): 0.12 to 0.25 µg/mL
MIC (C. krusei ATCC 6258): 0.15 µg/mL (≈ 0.162 µM)
MIC Range [1]: 1 to 2 µg/mL
MIC [1]: 1.41 µg/mL (≈ 1.53 µM)
MIC (C. tropicalis ATCC 750): 0.11 µg/mL (≈ 0.119 µM)
MIC Range (C. tropicalis ATCC 750): 0.06 to 0.12 µg/mL
MIC (C. glabrata LMDM 34): 0.06 µg/mL (≈ 0.0649 µM)
MIC Range (C. glabrata LMDM 34): 0.06 to 0.12 µg/mL
MIC Range [2]: <0.03 µg/mL
MIC [2]: < 0.03 µg/mL
MIC Range [3]: <0.03 µg/mL
MIC [3]: < 0.03 µg/mL
MIC Range (C. lusitaniae MUM 17.08): 0.03 µg/mL (≈ 0.0325 µM)
MIC (C. lusitaniae MUM 17.08): 0.03 µg/mL (≈ 0.0325 µM)
MIC Range (C. auris CDC B11903): 0.06 to 0.12 µg/mL
MIC (C. auris CDC B11903): 0.07 µg/mL (≈ 0.0758 µM)
MIC (C. auris Ca 10): 0.18 µg/mL (≈ 0.195 µM)
MIC Range (C. auris Ca 10): 0.12 to 0.25 µg/mL
MIC Range (C. auris Ca 17): 0.06 to 0.25 µg/mL
MIC (C. auris Ca 17): 0.15 µg/mL (≈ 0.162 µM)
MIC Range (C. auris Ca 1): 0.12 to 0.25 µg/mL
MIC (C. auris Ca 1): 0.2 µg/mL (≈ 0.216 µM)
MIC Range (C. auris Ca 32): 0.12 to 0.5 µg/mL
MIC (C. auris Ca 32): 0.19 µg/mL (≈ 0.206 µM)
MIC Range (C. auris Ca 41): 1 µg/mL (≈ 1.08 µM)
MIC (C. auris Ca 41): 1 µg/mL (≈ 1.08 µM)
MIC Range (C. auris Ca 45): 1 to 2 µg/mL
MIC (C. auris Ca 45): 1.41 µg/mL (≈ 1.53 µM)
MIC Range (C. auris Ca 46): 1 to 2 µg/mL
MIC (C. auris Ca 46): 1.4 µg/mL (≈ 1.52 µM)
MIC Range (C. auris Ca 9): 0.12 to 0.5 µg/mL
MIC (C. auris Ca 9): 0.25 µg/mL (≈ 0.271 µM)
MIC Range [4]: 0.06 to 0.25 µg/mL
MIC [4]: 0.15 µg/mL (≈ 0.162 µM)
Compound: C[C@@H]1[C@H](O)[C@@H](C)/C=C/C=C/C=C/C=C/C=C/C=C/C=C/[C@H](O[C@@H]2O[C@H](C)[C@@H](O)[C@H](N)[C@@H]2O)C[C@@H]2O[C@](O)(C[C@@H](O)C[C@@H](O)[C@H](O)CC[C@@H](O)C[C@@H](O)CC(=O)O[C@H]1C)C[C@H](O)[C@H]2C(=O)O [AMB, amphotericin B]
susceptibility category ([1]; resistance confirmed): resistance
susceptibility category (C. auris Ca 41; CDC breakpoints): AMB-resistant
susceptibility category (C. auris Ca 45; CDC breakpoints): AMB-resistant
susceptibility category (C. auris Ca 46; CDC breakpoints): AMB-resistant

Compound: OC(Cn1cncn1)(Cn1cncn1)c1ccc(F)cc1F [FLC, fluconazole]
MIC (C. albicans ATCC 10231): 4 µg/mL (≈ 13.1 µM)
MIC Range (C. albicans ATCC 10231): 4 µg/mL (≈ 13.1 µM)
MIC (C. albicans ATCC 64550): 5.6 µg/mL (≈ 18.3 µM)
MIC Range (C. albicans ATCC 64550): 4 to 8 µg/mL
MIC Range (C. krusei ATCC 6258): 8 µg/mL (≈ 26.1 µM)
MIC (C. krusei ATCC 6258): 8 µg/mL (≈ 26.1 µM)
MIC Range [1]: >64 µg/mL
MIC [1]: > 64 µg/mL
MIC (C. tropicalis ATCC 750): 1.4 µg/mL (≈ 4.57 µM)
MIC Range (C. tropicalis ATCC 750): 1 to 2 µg/mL
MIC (C. glabrata LMDM 34): 2.8 µg/mL (≈ 9.14 µM)
MIC Range (C. glabrata LMDM 34): 2 to 4 µg/mL
MIC Range [2]: 1 to 2 µg/mL
MIC [2]: 1.4 µg/mL (≈ 4.57 µM)
MIC Range [3]: 1 µg/mL (≈ 3.27 µM)
MIC [3]: 1 µg/mL (≈ 3.27 µM)
MIC Range (C. lusitaniae MUM 17.08): 0.5 µg/mL (≈ 1.63 µM)
MIC (C. lusitaniae MUM 17.08): 0.5 µg/mL (≈ 1.63 µM)
MIC Range (C. auris CDC B11903): 1 to 2 µg/mL
MIC (C. auris CDC B11903): 1.4 µg/mL (≈ 4.57 µM)
MIC (C. auris Ca 10): 4 µg/mL (≈ 13.1 µM)
MIC Range (C. auris Ca 10): 4 µg/mL (≈ 13.1 µM)
susceptibility category (C. auris Ca 17; CDC breakpoints): FLC-resistant
MIC Range (C. auris Ca 17): 32 µg/mL (≈ 104 µM)
MIC (C. auris Ca 17): 32 µg/mL (≈ 104 µM)
MIC Range (C. auris Ca 1): 4 µg/mL (≈ 13.1 µM)
MIC (C. auris Ca 1): 4 µg/mL (≈ 13.1 µM)
MIC Range (C. auris Ca 32): 8 to 16 µg/mL
MIC (C. auris Ca 32): 11.3 µg/mL (≈ 36.9 µM)
MIC Range (C. auris Ca 41): 2 µg/mL (≈ 6.53 µM)
MIC (C. auris Ca 41): 2 µg/mL (≈ 6.53 µM)
MIC Range (C. auris Ca 45): 2 µg/mL (≈ 6.53 µM)
MIC (C. auris Ca 45): 2 µg/mL (≈ 6.53 µM)
MIC Range (C. auris Ca 46): 2 to 4 µg/mL
MIC (C. auris Ca 46): 2.8 µg/mL (≈ 9.14 µM)
MIC Range (C. auris Ca 9): 4 µg/mL (≈ 13.1 µM)
MIC (C. auris Ca 9): 4 µg/mL (≈ 13.1 µM)
MIC Range [4]: 8 to 16 µg/mL
susceptibility category ([4]; resistance confirmed): resistance
MIC [4]: 11.3 µg/mL (≈ 36.9 µM)
